Among the data in ChEMBL document CHEMBL4342467, “Discovery of a Novel Dual-Target Inhibitor of ERK1 and ERK5 That Induces Regulated Cell Death to Overcome Compensatory Mechanism in Specific Tumor Types” (J Med Chem, 2020) are inhibition and IC50 values, retold here.

In general, inhibition refers to the drop in the measured response relative to a control, in per cent. High values mean a response far below the control, low ones a response near the control. As usually defined, the IC50 is the concentration needed to halve the response being measured.

Molecules are shown by their SMILES.

Assay [1] concerns the target Mitogen-activated protein kinase 1 (Homo sapiens) (UniProt P28482). Briefly: Inhibition of ERK2 (unknown origin) at 1 uM by Z'-Lyte assay relative to control.
The subject of another assay is HL-60. The experiment in a line: Antiproliferative activity against human HL60 cells assessed as reduction in cell viability measured after 24 hrs. Format: functional, cell-based. The settings on record: HL-60, 24 h.
Assay [2] addresses Mitogen-activated protein kinase 7 (Homo sapiens) (UniProt Q13164). Briefly: Inhibition of ERK5 (unknown origin) at 1 uM by Z'-Lyte assay relative to control.
Another assay concerns HeLa. The experiment in a line: Antiproliferative activity against human HeLa cells assessed as reduction in cell viability measured after 24 hrs. The assay is classed as functional, cell-based.
Another assay relates to MKN-74. The experiment in a line: Antiproliferative activity against human MKN74 cells assessed as reduction in cell viability measured after 24 hrs. The assay is classed as functional, cell-based. The settings on record: MKN-74, 24 h.
The target in assay [3] is Mitogen-activated protein kinase 3 (Homo sapiens) (UniProt P27361). Briefly: Inhibition of ERK1 (unknown origin) at 1 uM by Z'-Lyte assay relative to control.
Mitogen-activated protein kinase 3 (Homo sapiens), sequence (P27361 whole entry): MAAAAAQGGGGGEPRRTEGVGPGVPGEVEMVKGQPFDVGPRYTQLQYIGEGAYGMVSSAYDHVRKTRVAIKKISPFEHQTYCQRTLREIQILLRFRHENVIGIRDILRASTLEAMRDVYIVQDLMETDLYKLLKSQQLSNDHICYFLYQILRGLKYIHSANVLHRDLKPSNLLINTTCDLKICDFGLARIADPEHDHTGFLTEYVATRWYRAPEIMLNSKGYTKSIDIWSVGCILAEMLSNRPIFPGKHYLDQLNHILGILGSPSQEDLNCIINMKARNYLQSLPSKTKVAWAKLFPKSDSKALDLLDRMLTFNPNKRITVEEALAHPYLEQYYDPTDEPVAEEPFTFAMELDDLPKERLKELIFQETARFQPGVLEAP

Mitogen-activated protein kinase 7 (Homo sapiens), sequence (Q13164 2-816 limits assumed): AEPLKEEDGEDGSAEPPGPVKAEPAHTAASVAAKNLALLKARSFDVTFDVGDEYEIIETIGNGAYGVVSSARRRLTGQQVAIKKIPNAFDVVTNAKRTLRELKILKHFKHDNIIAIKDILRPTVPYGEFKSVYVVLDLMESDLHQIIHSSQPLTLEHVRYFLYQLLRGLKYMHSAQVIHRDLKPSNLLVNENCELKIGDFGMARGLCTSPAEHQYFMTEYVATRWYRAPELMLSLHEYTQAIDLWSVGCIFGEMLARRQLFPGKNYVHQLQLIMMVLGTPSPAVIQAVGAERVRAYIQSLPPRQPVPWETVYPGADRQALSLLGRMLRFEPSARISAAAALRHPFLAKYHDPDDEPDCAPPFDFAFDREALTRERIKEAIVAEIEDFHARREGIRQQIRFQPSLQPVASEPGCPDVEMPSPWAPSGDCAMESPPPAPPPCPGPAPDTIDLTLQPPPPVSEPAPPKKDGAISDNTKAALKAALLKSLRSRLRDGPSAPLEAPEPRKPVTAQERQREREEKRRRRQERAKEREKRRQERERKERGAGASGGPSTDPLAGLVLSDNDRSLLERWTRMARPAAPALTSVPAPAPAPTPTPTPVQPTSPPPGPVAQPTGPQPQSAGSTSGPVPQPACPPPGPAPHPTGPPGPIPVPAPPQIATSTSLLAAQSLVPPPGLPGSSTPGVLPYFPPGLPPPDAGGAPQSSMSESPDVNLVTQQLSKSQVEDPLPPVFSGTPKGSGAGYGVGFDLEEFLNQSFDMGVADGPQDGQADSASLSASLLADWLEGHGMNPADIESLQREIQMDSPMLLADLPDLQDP
Mitogen-activated protein kinase 1 (Homo sapiens), sequence (P28482 whole entry): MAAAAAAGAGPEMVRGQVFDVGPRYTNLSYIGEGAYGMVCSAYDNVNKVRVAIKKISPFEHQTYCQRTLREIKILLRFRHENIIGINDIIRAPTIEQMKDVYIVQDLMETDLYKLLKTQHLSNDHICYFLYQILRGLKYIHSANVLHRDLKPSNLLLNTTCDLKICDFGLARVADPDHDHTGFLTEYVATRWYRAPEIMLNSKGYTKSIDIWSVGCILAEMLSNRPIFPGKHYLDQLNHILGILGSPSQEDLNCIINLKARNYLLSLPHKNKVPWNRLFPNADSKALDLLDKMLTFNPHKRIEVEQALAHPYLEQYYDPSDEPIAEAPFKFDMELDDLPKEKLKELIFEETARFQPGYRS

Turning to `NC(=O)c1c(NC(=O)c2ccccc2Cl)sc2c1CCN(C(=S)Nc1ccccc1C(F)(F)F)C2`, the inhibition was 85.7% in assay [1], 76.6% in assay [2] and 83.6% in assay [3]. Besides, the IC50 in the assay with HL-60 came out at 10.6 µM; with HeLa it was 26.7 µM; with MKN-74 it was 1.87 µM.
On to `NC(=O)c1c(NC(=O)c2cccc([N+](=O)[O-])c2)sc2c1CCN(C(=S)Nc1cc(C(F)(F)F)cc(C(F)(F)F)c1)C2`, for which the inhibition in assay [1] was found to be 75%; in assay [2], 82.9%; in assay [3], 80.2%. In addition, the IC50 was 16.4 µM in the assay with HL-60, 27.2 µM with HeLa and 25.8 µM in the assay with MKN-74.
As to `Cc1ccccc1C(=O)Nc1sc2c(c1C(N)=O)CCN(C(=S)Nc1ccccc1Br)C2`, the inhibition in assay [1] is 65.2%; in assay [2] it was 54.9%; in assay [3], 64.7%. Also, the IC50 was 45.2 µM in the assay on HL-60, above 50 µM with HeLa and above 50 µM with MKN-74.
Consider `NC(=O)c1c(NC(=O)c2ccccc2C(F)(F)F)sc2c1CCN(C(=S)Nc1ccccc1Cl)C2`, for which the inhibition in assay [1] was 80.9%; in assay [2], 56.5%; in assay [3], 78.8%. For the same compound, the IC50 is 17.6 µM in the assay with HL-60, 46.9 µM in the assay on HeLa and 21.9 µM in the assay on MKN-74.
Take `Cc1ccc(C(=O)Nc2sc3c(c2C(N)=O)CCN(Cc2ccc(Cl)cc2Cl)C3)cc1`: the inhibition in assay [1] stood at 53.7%; in assay [2], 52.3%; in assay [3], 32.2%. Besides, the results for the IC50 with HL-60, in the assay with HeLa and in the assay with MKN-74 were 19.9 µM, above 50 µM and 25.5 µM, respectively.
Turning to `NC(=O)c1c(NC(=O)c2ccccc2Cl)sc2c1CCN(C(=S)Nc1cc(C(F)(F)F)cc(C(F)(F)F)c1)C2`, the inhibition in assay [1] came to 88.8%; in assay [2], 77.4%; in assay [3] it was 89.3%. For the same compound, the values for the IC50 in the assay with HL-60, with HeLa and in the assay on MKN-74 were 6.5 µM, 48.9 µM and 15 µM, respectively.
With `COc1ccccc1NC(=S)N1CCc2c(sc(NC(=O)c3ccccc3OC)c2C(N)=O)C1`, the inhibition in assay [1] amounted to 48.7%; in assay [2], 32%; in assay [3] it was 44.7%. Moreover, the IC50 with HL-60, in the assay with HeLa and in the assay with MKN-74 was above 50 µM each time.
Take `NC(=O)c1c(NC(=O)c2ccc(C(F)(F)F)cc2)sc2c1CCN(Cc1c(Cl)cccc1Cl)C2`: the figures for the inhibition in assay [1], in assay [2] and in assay [3] were 35.6%, 38.7% and 37.3%, respectively. For the same compound, the IC50 in the assay with HL-60 was 10.6 µM; in the assay with HeLa, above 50 µM; with MKN-74 it was 8.53 µM.
As for `Cc1ccccc1NC(=S)N1CCc2c(sc(NC(=O)c3ccccc3C(F)(F)F)c2C(N)=O)C1`, the inhibition in assay [1] came to 62.8%; in assay [2], 48.3%; in assay [3], 64.9%. For the same compound, the values for the IC50 in the assay on HL-60, in the assay with HeLa and with MKN-74 were 25.1 µM, 47 µM and 47.4 µM, respectively.
Regarding `COc1ccccc1C(=O)Nc1sc2c(c1C(N)=O)CCN(C(=S)Nc1ccccc1Cl)C2`, the figures for the inhibition in assay [1], in assay [2] and in assay [3] were 67.1%, 53.5% and 66.3%, respectively. The IC50 in the assay on HL-60 is 20.8 µM; in the assay with HeLa, above 50 µM; in the assay on MKN-74, 20.5 µM.
Consider `NC(=O)c1c(NC(=O)c2ccccc2Cl)sc2c1CCN(C(=S)Nc1cccc3ccccc13)C2`, for which the inhibition in assay [1] came to 81.3%; in assay [2], 72.5%; in assay [3], 82.8%. Further, the IC50 came out at 13.4 µM in the assay on HL-60, 30.8 µM in the assay on HeLa and 20.7 µM in the assay with MKN-74.
As for `NC(=O)c1c(NC(=O)c2ccccc2Cl)sc2c1CCN(C(=S)Nc1ccc(C(F)(F)F)cc1)C2`, the inhibition in assay [1] was determined as 54.4%; in assay [2], 57.4%; in assay [3], 80.5%. Also, the IC50 with HL-60 is 7.59 µM; in the assay on HeLa, above 50 µM; in the assay with MKN-74, 7.09 µM.
For `COc1ccccc1NC(=S)N1CCc2c(sc(NC(=O)c3ccccc3I)c2C(N)=O)C1`, the figures for the inhibition in assay [1], in assay [2] and in assay [3] were 59.6%, 42.8% and 56.1%, respectively. The 50% inhibitory concentration (IC50) was above 50 µM with HL-60, above 50 µM with HeLa and 41.8 µM in the assay with MKN-74.
For `Cc1ccc(C(=O)Nc2sc3c(c2C(N)=O)CCN(C(=O)Nc2ccccc2Cl)C3)cc1`, the figures for the inhibition in assay [1], in assay [2] and in assay [3] were 71.9%, 53.8% and 70.4%, respectively. Besides, the IC50 with HL-60 was determined as 14.6 µM; with HeLa, 32.9 µM; in the assay with MKN-74, 27.6 µM.
On to `NC(=O)c1c(NC(=O)c2ccc(C(F)(F)F)cc2)sc2c1CCN(C(=S)Nc1ccc(C(F)(F)F)cc1)C2`, for which the inhibition in assay [1] stood at 79.7%; in assay [2] it was 57.9%; in assay [3] it was 82.5%. For the same compound, the values for the IC50 in the assay with HL-60, with HeLa and with MKN-74 were 5.52 µM, above 50 µM and 12.2 µM, respectively.
`COc1ccccc1NC(=S)N1CCc2c(sc(NC(=O)c3ccccc3Cl)c2C(N)=O)C1`: the inhibition amounted to 70.6% in assay [1], 53.7% in assay [2] and 71.3% in assay [3]. In addition, the IC50 with HL-60 was 40.9 µM; in the assay with HeLa, above 50 µM; in the assay on MKN-74, 35.2 µM.
As for `NC(=O)c1c(NC(=O)c2ccccc2F)sc2c1CCN(Cc1cccc(Cl)c1)C2`, the inhibition in assay [1] was determined as 48.8%; in assay [2], 42.5%; in assay [3], 49.3%. In addition, the IC50 is 19.8 µM in the assay with HL-60, 49.5 µM in the assay with HeLa and 23.3 µM in the assay on MKN-74.
Turning to `Cc1ccccc1NC(=S)N1CCc2c(sc(NC(=O)c3ccccc3Cl)c2C(N)=O)C1`, the inhibition is 72.8% in assay [1], 59.3% in assay [2] and 68.4% in assay [3]. For the same compound, the IC50 with HL-60 was 22.6 µM; in the assay on HeLa it was above 50 µM; with MKN-74 it was 11.7 µM.
With `NC(=O)c1c(NC(=O)c2ccccc2Br)sc2c1CCN(C(=S)Nc1ccccc1C(F)(F)F)C2`, the inhibition worked out at 72.1% in assay [1], 78.6% in assay [2] and 79.3% in assay [3]. The results for the IC50 with HL-60, in the assay on HeLa and in the assay on MKN-74 were 27.4 µM, 39.6 µM and 24.3 µM, respectively.
As for `NC(=O)c1c(NC(=O)c2ccccc2Cl)sc2c1CCNC2`, the inhibition is 64.9% in assay [1], 62.7% in assay [2] and 61.5% in assay [3]. For the same compound, the IC50 in the assay with HL-60 turned out to be 18.6 µM; with HeLa, 45 µM; in the assay with MKN-74, 28.7 µM.
For `NC(=O)c1c(NC(=O)c2ccc(C(F)(F)F)cc2)sc2c1CCN(C(=O)Nc1ccccc1Cl)C2`, the inhibition was found to be 77.6% in assay [1], 62.2% in assay [2] and 78.3% in assay [3]. The IC50 was above 50 µM in the assay with HL-60, above 50 µM with HeLa and 43.9 µM with MKN-74.
In the case of `NC(=O)c1c(NC(=O)c2ccccc2Br)sc2c1CCN(C(=S)Nc1ccccc1Br)C2`, the inhibition in assay [1] is 82.1%; in assay [2], 88.4%; in assay [3], 80.9%. In addition, the IC50 in the assay on HL-60 came out at 17.6 µM; in the assay with HeLa, 24.7 µM; in the assay with MKN-74, 13.7 µM.
For the compound `NC(=O)c1c(NC(=O)c2ccccc2Cl)sc2c1CCN(Cc1c(Cl)cccc1Cl)C2`, the inhibition is 78.1% in assay [1], 61.9% in assay [2] and 57.8% in assay [3]. Also, the IC50 with HL-60 came out at 4.85 µM; in the assay on HeLa it was 28.8 µM; in the assay with MKN-74 it was 4.74 µM.
As for `NC(=O)c1c(NC(=O)c2ccncn2)sc2c1CCN(C(=S)Nc1ccccc1Cl)C2`, the inhibition came out at 45.7% in assay [1], 38.5% in assay [2] and 48.5% in assay [3]. Further, the figures for the half-maximal inhibitory concentration (IC50) with HL-60, in the assay on HeLa and in the assay on MKN-74 were 34.6 µM, above 50 µM and 28.4 µM, respectively.
Consider `N#Cc1ccccc1CN1CCc2c(sc(NC(=O)c3ccccc3Cl)c2C(N)=O)C1`, for which the inhibition in assay [1] was determined as 42.1%; in assay [2], 44.3%; in assay [3], 55.8%. Besides, the figures for the IC50 with HL-60, with HeLa and in the assay on MKN-74 were 10.4 µM, above 50 µM and 9.5 µM, respectively.
For the compound `NC(=O)c1c(NC(=O)c2ccccc2F)sc2c1CCN(C(=S)Nc1ccccc1Cl)C2`, the figures for the inhibition in assay [1], in assay [2] and in assay [3] were 68.6%, 65.2% and 62.4%, respectively. In addition, the IC50 amounted to 12.5 µM with HL-60, 19.4 µM in the assay with HeLa and 11.1 µM in the assay on MKN-74.
Turning to `Cc1ccc(C(=O)Nc2sc3c(c2C(N)=O)CCN(C(=S)Nc2cc(C(F)(F)F)cc(C(F)(F)F)c2)C3)cc1`, the inhibition worked out at 80.1% in assay [1], 70.8% in assay [2] and 77.4% in assay [3]. For the same compound, the IC50 was 11.8 µM in the assay with HL-60, 17.1 µM in the assay with HeLa and 14.9 µM in the assay with MKN-74.
In the case of `NC(=O)c1c(NC(=O)c2ccccc2F)sc2c1CCN(Cc1c(Cl)cccc1Cl)C2`, the values for the inhibition in assay [1], in assay [2] and in assay [3] were 36.9%, 21.1% and 48.4%, respectively. The results for the IC50 in the assay with HL-60, in the assay with HeLa and in the assay on MKN-74 were 10.3 µM, 33 µM and 7.43 µM, respectively.
For `NC(=O)c1c(NC(=O)c2ccccc2Br)sc2c1CCN(C(=S)Nc1ccccc1F)C2`, the inhibition came to 68.7% in assay [1], 65.7% in assay [2] and 70.1% in assay [3]. Further, the IC50 in the assay with HL-60, in the assay with HeLa and in the assay on MKN-74 was above 50 µM throughout.
As to `NC(=O)c1c(NC(=O)c2cccc([N+](=O)[O-])c2)sc2c1CCN(Cc1c(Cl)cccc1Cl)C2`, the inhibition in assay [1] came to 29.3%; in assay [2], 45.2%; in assay [3], 31.6%. Moreover, the IC50 is 18.4 µM in the assay with HL-60, 46.1 µM with HeLa and 13.5 µM with MKN-74.
